Reference: US20040259096A1, “Receptor capture assay” (priority 2001, published 2004)

Test system: AhR
Assay: Receptor capture assay, end-point PCR with anti-DIG time-resolved fluorescence detection, Hepa 1c1c7 cell extract
Format: biochemical, murine
Protocol: End-point PCR may also be utilized for dioxins. Calibrators containing 10, 100, 1000 fmol of 2,3,7,8-tetrachlorodibenzo-p-dioxin (TCDD) were prepared and 1 μl of each calibrator was dispensed into a glass test tube.
An extract from Hepa 1c1c7 cells was prepared as described by Example 1 to provide AhR for the assays. 100 μl NEAT to 0.5 μl of Hepa 1c1c7 cell extract diluted in Assay Buffer was added to each tube, thoroughly mixed, and the tubes were capped, or covered with Parafilm™. The samples were then incubated at room temperature to 37° C. for 30 min to 2 hr. Salt and salmon sperm DNA was then added to the AhR reaction medium in concentrations of 50 mM to 200 mM and 5 to 100 μg/ml, respectively. The samples were then incubated for a period ranging from 0-20 minutes at room temperature. Nucleic acid-tracer (1 nM) was added and mixed gently to allow complex formation between activated AhR and nucleic acid-tracer, where TCCD was present. The reaction tubes were incubated for a time ranging from 10 min to 1 hour, at room temperature.
Capture Strips coated with anti-ARNT antibody were prepared as described in Example 1. An aliquot of AhR reaction medium (25 to 100 μl) from each glass tube was then transferred to a corresponding well of the Capture Strip. The Capture Strips were incubated for an additional 30 min to 1 hour at room temperature, with shaking. Unbound nucleic acid-tracer was rigorously removed by washing wells five times with Wash Buffer B, optionally soaking wells for 30 sec-5 min with wash buffer during each cycle. The strips may be shaken during the soak step if desired. The strips were washed twice with water, with all liquids aspirated at the finish.
The nucleic acid-tracer remaining in the Capture Strip was PCR amplified by the following method: A PCR Master Mix was assembled with the following final concentrations: 1×PCR buffer with 1.5 mM MgCl2, 0.2 mM dATP, dCTP, dGTP, 0.15 mM dTTP, 0.05 mM DIG-dUTP (Roche, Indianapolis, Ind.), 0.5 μM each primer (PRI 1A and PRI 1B), […] Taq polymerase. The Master Mix was aliquoted 30-50 μl per well, then tape applied to seal the wells. The thermocycler profile was: 94° C., 20 sec, 15 cycles of [94° C., 30 sec, 52° C., 30 sec, 72° C. 30 sec], then 72° C., 30 sec and chilled to 4° C.
Ten μl of PCR sample was assayed by ELISA-PCR with anti-DIG detection as follows.
The PCR sample was diluted to 30 μl with water in 0.2 ml tube. The sample was heated 95° C. for 3-5 min. The immobilization (capture) probe was:
The probe was diluted to 10 nM in Hybridization Buffer (0.5× Assay Buffer, 0.5 M NaCl). The probe (100 μl=1 pmol) was then added to the hot samples, mixed, and incubated at 37° C. for 45 min.
The sample was transferred to a pre-washed streptavidin-coated microtiter wells in the form of strips or plates obtained from DELFIA catalog number 4009-0010 (Wallac, Finland) and shaken for 45 min. at room temperature. Strips or plates were washed three times with Wallac Wash Buffer (DELFIA wash concentrate, catalog number 13800865, Wallac, Finland). The Wallac Wash Buffer (1×) for the automated plate washer was made from 25× Wash Concentrate (Wallac), which contains Tris, NaCl, and TWEEN-20.
Anti-DIG antibody (Sigma Chemical Co, St. Louis, Mo.) was diluted 1/1000 in Assay Buffer and 100 μl added to each well, and strips were shaken for 30 min. […] Samples were counted on a Victor 2 multilabel counter/plate reader (catalog number 1420-012, Wallac, Finland) using time-resolved fluorescence. […]

Clc1cc2c(cc1Cl)Oc1cc(Cl)c(Cl)cc1O2 [TCDD, 2,3,7,8-tetrachlorodibenzo-p-dioxin]
Counts (time-resolved fluorescence) (TCDD 1 fmol): 5770 | Counts (time-resolved fluorescence) (TCDD 10 fmol): 17287 | Counts (time-resolved fluorescence) (TCDD 100 fmol): 100645 | Counts (time-resolved fluorescence) (TCDD 1000 fmol): 504879

O=c1cc(-c2ccccc2)oc2ccc3ccccc3c12 [BNF, beta-naphthoflavone]
DNA signal over DMSO control (BNF in DMSO added to Hepa 1c1c7 cell extract): significantly and reproducibly increased the DNA signal
